One assay relates to 20084 (donor line of iPSC-derived cardiomyocytes). Nature of the assay: POD (EC05) for decrease in beat frequency (negative chronotrope) vs vehicle; higher = less potent (higher point of departure). As to conditions: exposure time: 90 min. Summed up: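 Ca2+ flux in human iPSC-derived cardiomyocytes from 16 donors was recorded on a FLIPR Tetra for 100 s before and after a 90 min exposure at 37 °C to 0.1, 1, 10 and 100 µM (final, 0.5% DMSO). Donor-specific points of departure came from hierarchical Bayesian Hill fits to vehicle-normalised beat frequency, decay-to-rise ratio or peak frequency. A 5% change served as threshold, except for peak frequency, where it was a 95% loss.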
As to `O=S(=O)(O)C(F)(F)C(F)(F)C(F)(F)C(F)(F)F` [Perfluorobutanesulfonic_acid], the POD vs vehicle was more than 100 µM.

`O=C(O)C(F)(F)C(F)(F)C(F)(F)C(F)(F)C(F)(F)C(F)(F)C(F)(F)C(F)(F)C(F)(F)C(F)(F)F` [Perfluoroundecanoic_acid] had a POD vs vehicle of more than 100 µM.

The subject of a further assay is 1083 (donor line of iPSC-derived cardiomyocytes). Nature of the assay: POD (EC05) for increase in beat frequency (positive chronotrope) vs vehicle; higher = less potent (higher point of departure). As to conditions: exposure time: 90 min. The protocol:
(§1)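 Human iPSC-derived cardiomyocytes from 16 donors were exposed for 90 min at 37 °C to each PFAS at 0.1, 1, 10 and 100 µM in 0.5% DMSO, 384-well plates. Kinetic Ca2+ flux (FLIPR) and Hoechst nuclei counts were normalised to vehicle wells and fitted with a hierarchical Bayesian Hill model to give donor-specific PODs: EC05 for beat-rate increase or decrease and for decay-to-rise ratio increase (QT proxy), EC95 for peak-frequency loss (asystole), EC10 for total cell number loss. 0.03 µM is the lower bound.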
Take `NC(=O)C(F)(F)C(F)(F)C(F)(F)C(F)F`: the POD vs vehicle was more than 100 µM.

Regarding `OCC(O)CC(F)(F)C(F)(F)C(F)(F)C(F)(F)C(F)(F)C(F)(F)C(F)(F)C(F)(F)F` (centres undefined) [1-(Perfluorofluorooctyl)propane-2,3-diol], the POD vs vehicle was more than 100 µM.

In turn, `CC(O)C(F)(F)C(F)(F)F` (centres undefined) [1-Pentafluoroethylethanol] yielded a POD vs vehicle of more than 100 µM.

As to `OCC(F)(F)C(F)(F)C(F)(F)C(F)F` [1H,1H,5H-Perfluoropentanol], the POD vs vehicle is more than 100 µM.

Regarding `O=S(=O)(OCC(F)(F)F)C(F)(F)C(F)(F)C(F)(F)C(F)(F)F` [2,2,2-Trifluoroethyl_perfluorobutanesulfonate], the POD vs vehicle is more than 100 µM.

Regarding `NC(O)(C(F)(F)F)C(F)(F)F` [2-Aminohexafluoropropan-2-ol], the POD vs vehicle was more than 100 µM.

In turn, `O=C(O)CCC(F)(F)C(F)(F)C(F)(F)C(F)(F)C(F)(F)F` [2H,2H,3H,3H-Perfluorooctanoic_acid] yielded a POD vs vehicle of more than 100 µM.

For the compound `O=C(O)C=C(C(F)(F)F)C(F)(F)F` [3,3-Bis(trifluoromethyl)-2-propenoic_acid], the POD vs vehicle was more than 100 µM.

`O=C(O)C=CC(F)(C(F)(F)F)C(F)(F)F` [3-(Perfluoroisopropyl)-2-propenoic_acid]: the POD vs vehicle was more than 100 µM.

In the case of `O=C(O)CCC(F)(F)C(F)(F)C(F)(F)C(F)(F)C(F)(F)C(F)(F)C(F)(F)F` [3-Perfluoroheptylpropanoic_acid], the POD vs vehicle is more than 100 µM.

The compound `O=C(O)CCC(F)(F)C(F)(F)C(F)(F)F` [3:3 Fluorotelomer carboxylic acid] gave a POD vs vehicle of more than 100 µM.

`O=C(CC(=O)C(F)(F)C(F)(F)F)C(F)(F)F` [3H,3H-Perfluoro-2,4-hexanedione] came in with a POD vs vehicle of more than 100 µM.

Compound `OCCC(F)(F)C(F)(F)C(F)(F)C(F)(F)F` [4:2 Fluorotelomer alcohol] gave a POD vs vehicle of more than 100 µM.

Turning to `O=S(=O)(O)CCC(F)(F)C(F)(F)C(F)(F)C(F)(F)F` [4:2 Fluorotelomer sulfonic acid], the POD vs vehicle was more than 100 µM.

The compound `OCC(F)(F)OC(F)(F)C(F)(F)OC(F)(F)C(F)(F)OC(F)(F)F` [Fluorinated_triethylene_glycol_monomethyl_ether] yielded a POD vs vehicle of more than 100 µM.

The compound `CN(CCO)S(=O)(=O)C(F)(F)C(F)(F)C(F)(F)C(F)(F)C(F)(F)C(F)(F)C(F)(F)C(F)(F)F` [N-Methyl-N-(2-hydroxyethyl)perfluorooctanesulfonamide] yielded a POD vs vehicle of more than 100 µM.

Compound `O=C(O)C(F)(F)C(F)(F)C(F)(F)C(F)(F)C(F)(F)C(F)(F)C(F)(F)C(F)(F)C(F)(F)C(F)(F)F` [Perfluoroundecanoic_acid] registered a POD vs vehicle of more than 100 µM.

The next assay has as its system 1118 (donor line of iPSC-derived cardiomyocytes). The description is as above. As to conditions: exposure time: 90 min. Here is the method:
as §1
Regarding `NC(=O)C(F)(F)C(F)(F)C(F)(F)C(F)F`, the POD vs vehicle was more than 100 µM.

For `OCC(O)CC(F)(F)C(F)(F)C(F)(F)C(F)(F)C(F)(F)C(F)(F)C(F)(F)C(F)(F)F` (centres undefined) [1-(Perfluorofluorooctyl)propane-2,3-diol], the POD vs vehicle worked out at 3.1 µM.

As to `CC(O)C(F)(F)C(F)(F)F` (centres undefined) [1-Pentafluoroethylethanol], the POD vs vehicle is more than 100 µM.

In the case of `OCC(F)(F)C(F)(F)C(F)(F)C(F)F` [1H,1H,5H-Perfluoropentanol], the POD vs vehicle was more than 100 µM.

The compound `O=S(=O)(OCC(F)(F)F)C(F)(F)C(F)(F)C(F)(F)C(F)(F)F` [2,2,2-Trifluoroethyl_perfluorobutanesulfonate] came in with a POD vs vehicle of more than 100 µM.

The compound `O=C(O)C(F)(F)C(F)(F)C(F)F` [2,2,3,3,4,4-Hexafluorobutanoic_acid] registered a POD vs vehicle of more than 100 µM.

Turning to `NC(O)(C(F)(F)F)C(F)(F)F` [2-Aminohexafluoropropan-2-ol], the POD vs vehicle is more than 100 µM.

Consider `O=C(O)CCC(F)(F)C(F)(F)C(F)(F)C(F)(F)C(F)(F)F` [2H,2H,3H,3H-Perfluorooctanoic_acid], for which the POD vs vehicle is more than 100 µM.

As to `O=C(O)C=C(C(F)(F)F)C(F)(F)F` [3,3-Bis(trifluoromethyl)-2-propenoic_acid], the POD vs vehicle was more than 100 µM.

For the compound `O=C(O)C=CC(F)(C(F)(F)F)C(F)(F)F` [3-(Perfluoroisopropyl)-2-propenoic_acid], the POD vs vehicle was more than 100 µM.

With `O=C(O)CCC(F)(F)C(F)(F)C(F)(F)C(F)(F)C(F)(F)C(F)(F)C(F)(F)F` [3-Perfluoroheptylpropanoic_acid], the POD vs vehicle is more than 100 µM.

Turning to `O=C(O)CCC(F)(F)C(F)(F)C(F)(F)F` [3:3 Fluorotelomer carboxylic acid], the POD vs vehicle is more than 100 µM.

With `O=C(CC(=O)C(F)(F)C(F)(F)F)C(F)(F)F` [3H,3H-Perfluoro-2,4-hexanedione], the POD vs vehicle is more than 100 µM.

Compound `OCCC(F)(F)C(F)(F)C(F)(F)C(F)(F)F` [4:2 Fluorotelomer alcohol] gave a POD vs vehicle of more than 100 µM.

Consider `O=S(=O)(O)CCC(F)(F)C(F)(F)C(F)(F)C(F)(F)F` [4:2 Fluorotelomer sulfonic acid], for which the POD vs vehicle was more than 100 µM.

Consider `O=C([O-])C(F)(F)C(F)(F)C(F)(F)C(F)(F)C(F)(F)C(F)(F)C(F)(F)F.[NH4+]` [Ammonium_perfluorooctanoate], for which the POD vs vehicle was more than 100 µM.

For `OCC(F)(F)OC(F)(F)C(F)(F)OC(F)(F)C(F)(F)OC(F)(F)F` [Fluorinated_triethylene_glycol_monomethyl_ether], the POD vs vehicle was more than 100 µM.

Turning to `CN(CCO)S(=O)(=O)C(F)(F)C(F)(F)C(F)(F)C(F)(F)C(F)(F)C(F)(F)C(F)(F)C(F)(F)F` [N-Methyl-N-(2-hydroxyethyl)perfluorooctanesulfonamide], the POD vs vehicle was more than 100 µM.

In turn, `O=S(=O)(O)C(F)(F)C(F)(F)C(F)(F)C(F)(F)F` [Perfluorobutanesulfonic_acid] had a POD vs vehicle of more than 100 µM.

In turn, `O=C(O)C(F)(F)C(F)(F)C(F)(F)C(F)(F)C(F)(F)C(F)(F)C(F)(F)C(F)(F)C(F)(F)C(F)(F)F` [Perfluoroundecanoic_acid] had a POD vs vehicle of more than 100 µM.

The next assay has as its system 11235 (donor line of iPSC-derived cardiomyocytes). The description is as above. As to conditions: exposure time: 90 min. Here is the method: as §1
In the case of `NC(=O)C(F)(F)C(F)(F)C(F)(F)C(F)F`, the POD vs vehicle is more than 100 µM.

Compound `OCC(O)CC(F)(F)C(F)(F)C(F)(F)C(F)(F)C(F)(F)C(F)(F)C(F)(F)C(F)(F)F` (centres undefined) [1-(Perfluorofluorooctyl)propane-2,3-diol] showed a POD vs vehicle of 0.231 µM.

Compound `CC(O)C(F)(F)C(F)(F)F` (centres undefined) [1-Pentafluoroethylethanol] gave a POD vs vehicle of more than 100 µM.

Consider `OCC(F)(F)C(F)(F)C(F)(F)C(F)F` [1H,1H,5H-Perfluoropentanol], for which the POD vs vehicle is more than 100 µM.

For the compound `O=S(=O)(OCC(F)(F)F)C(F)(F)C(F)(F)C(F)(F)C(F)(F)F` [2,2,2-Trifluoroethyl_perfluorobutanesulfonate], the POD vs vehicle is more than 100 µM.

Consider `O=C(O)C(F)(F)C(F)(F)C(F)F` [2,2,3,3,4,4-Hexafluorobutanoic_acid], for which the POD vs vehicle was more than 100 µM.

On to `NC(O)(C(F)(F)F)C(F)(F)F` [2-Aminohexafluoropropan-2-ol], for which the POD vs vehicle is more than 100 µM.

Compound `O=C(O)CCC(F)(F)C(F)(F)C(F)(F)C(F)(F)C(F)(F)F` [2H,2H,3H,3H-Perfluorooctanoic_acid] yielded a POD vs vehicle of more than 100 µM.

As to `O=C(O)C=C(C(F)(F)F)C(F)(F)F` [3,3-Bis(trifluoromethyl)-2-propenoic_acid], the POD vs vehicle is more than 100 µM.

As for `O=C(O)C=CC(F)(C(F)(F)F)C(F)(F)F` [3-(Perfluoroisopropyl)-2-propenoic_acid], the POD vs vehicle is more than 100 µM.
